Test results as given in patent publication US12344578B2, “Salt forms of bempedoic acid and methods for using the same” (Esperion Therapeutics, Inc., priority 2019, dated 2025).
Each block holds one compound with its values, some of them ahead of it.

Test: Thermogravimetric analysis (TGA), weight loss on heating
Assay type: physicochemical
Method: Thermogravimetric analysis (TGA) data for the crystalline form of the compound of formula (V) were collected using a TA Discovery 550 TGA instrument. The TGA instrument was calibrated using a nickel reference standard. Samples of the crystalline form of the compound of formula (V) were placed in open platinum sample pans and heated at a rate of 10° C./minute from about ambient temperature (˜25° C.) to about 315° C.
TGA data were collected using a TA Discovery 550 TGA instrument. The TGA instrument was calibrated using a nickel reference standard. Samples were placed in open platinum sample pans and heated at a rate of 10° C./minute from about ambient temperature (˜25° C.) to about 315° C.

TGA weight loss prior to decomposition (heated at 10° C./minute from ~25° C. to about 315° C.): negligible weight loss
Structure (SMILES): CC(C)(CCCCCC(O)CCCCCC(C)(C)C(=O)O)C(=O)O [8-hydroxy-2,2,14,14-tetramethylpentadecanedioic acid]

TGA weight loss (up to 62.8° C.): Negligible weight loss
Structure (SMILES): CC(C)(CCCCCC(O)CCCCCC(C)(C)C(=O)[O-])C(=O)[O-].[Ca+2] [Crystalline Form A of the calcium salt]

TGA weight loss (up to 86.9° C.): 2.23%
Structure (SMILES): CC(C)(CCCCCC(O)CCCCCC(C)(C)C(=O)[O-])C(=O)[O-].[Ca+2] [Crystalline Form B of the calcium salt]
